The target of assay [1] is Genome polyprotein (Coxsackievirus B3 (strain Nancy), UniProt P03313). Description: Inhibition of human coxsackievirus B3 protease 3C expressed in Escherichia coli (BL21) using fluorogenic-Dabcyl-KEALFQGPPQFE-Edans as substrate after 1 hr by FRET assay.
Assay [2] has as its target Genome polyprotein (Coxsackievirus B3 (strain Nancy)) (UniProt P03313). Briefly: Inhibition of human coxsackievirus B3 protease 3C expressed in Escherichia coli (BL21) at 40 uM using fluorogenic-Dabcyl-KEALFQGPPQFE-Edans as substrate after 1 hr by FRET assay.
In assay [3] the target is Genome polyprotein (rhinovirus B14, UniProt P03303). Description: Inhibition of recombinant human rhinovirus protease 3C using fluorogenic-Dabcyl-KTSAVLQSGFRKME-Edan as substrate after 5 mins by FRET assay. On the set-up: species or system Human rhinovirus sp.
The target in assay [4] is Genome polyprotein (rhinovirus B14) (UniProt P03303). Description: Inhibition of human rhinovirus protease 3C catalytic activity assessed as suppression of target protein cleavage at 50 uM after 30 mins by SDS-PAGE analysis. Particulars: Human rhinovirus sp.
For assay [5] the target is unchanged. Description: Inhibition of human rhinovirus protease 3C catalytic activity assessed as suppression of target protein cleavage at 5 uM after 30 mins by SDS-PAGE analysis. The following applies: Human rhinovirus sp.

Calls of active or inactive are those of the source. No cut-off for these calls is given here. A value given as a limit tells only on which side of the number the result lay.

Chain of Genome polyprotein (Coxsackievirus B3 (strain Nancy), UniProt P03313) (P03313 1541-1723 limits assumed): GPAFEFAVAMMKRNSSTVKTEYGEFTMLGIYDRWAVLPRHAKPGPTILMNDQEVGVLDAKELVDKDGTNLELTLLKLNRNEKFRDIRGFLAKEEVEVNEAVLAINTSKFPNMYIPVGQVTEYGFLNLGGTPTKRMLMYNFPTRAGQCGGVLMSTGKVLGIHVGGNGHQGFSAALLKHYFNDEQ
Chain of Genome polyprotein (Coxsackievirus B3 (strain Nancy)) (P03313 whole entry): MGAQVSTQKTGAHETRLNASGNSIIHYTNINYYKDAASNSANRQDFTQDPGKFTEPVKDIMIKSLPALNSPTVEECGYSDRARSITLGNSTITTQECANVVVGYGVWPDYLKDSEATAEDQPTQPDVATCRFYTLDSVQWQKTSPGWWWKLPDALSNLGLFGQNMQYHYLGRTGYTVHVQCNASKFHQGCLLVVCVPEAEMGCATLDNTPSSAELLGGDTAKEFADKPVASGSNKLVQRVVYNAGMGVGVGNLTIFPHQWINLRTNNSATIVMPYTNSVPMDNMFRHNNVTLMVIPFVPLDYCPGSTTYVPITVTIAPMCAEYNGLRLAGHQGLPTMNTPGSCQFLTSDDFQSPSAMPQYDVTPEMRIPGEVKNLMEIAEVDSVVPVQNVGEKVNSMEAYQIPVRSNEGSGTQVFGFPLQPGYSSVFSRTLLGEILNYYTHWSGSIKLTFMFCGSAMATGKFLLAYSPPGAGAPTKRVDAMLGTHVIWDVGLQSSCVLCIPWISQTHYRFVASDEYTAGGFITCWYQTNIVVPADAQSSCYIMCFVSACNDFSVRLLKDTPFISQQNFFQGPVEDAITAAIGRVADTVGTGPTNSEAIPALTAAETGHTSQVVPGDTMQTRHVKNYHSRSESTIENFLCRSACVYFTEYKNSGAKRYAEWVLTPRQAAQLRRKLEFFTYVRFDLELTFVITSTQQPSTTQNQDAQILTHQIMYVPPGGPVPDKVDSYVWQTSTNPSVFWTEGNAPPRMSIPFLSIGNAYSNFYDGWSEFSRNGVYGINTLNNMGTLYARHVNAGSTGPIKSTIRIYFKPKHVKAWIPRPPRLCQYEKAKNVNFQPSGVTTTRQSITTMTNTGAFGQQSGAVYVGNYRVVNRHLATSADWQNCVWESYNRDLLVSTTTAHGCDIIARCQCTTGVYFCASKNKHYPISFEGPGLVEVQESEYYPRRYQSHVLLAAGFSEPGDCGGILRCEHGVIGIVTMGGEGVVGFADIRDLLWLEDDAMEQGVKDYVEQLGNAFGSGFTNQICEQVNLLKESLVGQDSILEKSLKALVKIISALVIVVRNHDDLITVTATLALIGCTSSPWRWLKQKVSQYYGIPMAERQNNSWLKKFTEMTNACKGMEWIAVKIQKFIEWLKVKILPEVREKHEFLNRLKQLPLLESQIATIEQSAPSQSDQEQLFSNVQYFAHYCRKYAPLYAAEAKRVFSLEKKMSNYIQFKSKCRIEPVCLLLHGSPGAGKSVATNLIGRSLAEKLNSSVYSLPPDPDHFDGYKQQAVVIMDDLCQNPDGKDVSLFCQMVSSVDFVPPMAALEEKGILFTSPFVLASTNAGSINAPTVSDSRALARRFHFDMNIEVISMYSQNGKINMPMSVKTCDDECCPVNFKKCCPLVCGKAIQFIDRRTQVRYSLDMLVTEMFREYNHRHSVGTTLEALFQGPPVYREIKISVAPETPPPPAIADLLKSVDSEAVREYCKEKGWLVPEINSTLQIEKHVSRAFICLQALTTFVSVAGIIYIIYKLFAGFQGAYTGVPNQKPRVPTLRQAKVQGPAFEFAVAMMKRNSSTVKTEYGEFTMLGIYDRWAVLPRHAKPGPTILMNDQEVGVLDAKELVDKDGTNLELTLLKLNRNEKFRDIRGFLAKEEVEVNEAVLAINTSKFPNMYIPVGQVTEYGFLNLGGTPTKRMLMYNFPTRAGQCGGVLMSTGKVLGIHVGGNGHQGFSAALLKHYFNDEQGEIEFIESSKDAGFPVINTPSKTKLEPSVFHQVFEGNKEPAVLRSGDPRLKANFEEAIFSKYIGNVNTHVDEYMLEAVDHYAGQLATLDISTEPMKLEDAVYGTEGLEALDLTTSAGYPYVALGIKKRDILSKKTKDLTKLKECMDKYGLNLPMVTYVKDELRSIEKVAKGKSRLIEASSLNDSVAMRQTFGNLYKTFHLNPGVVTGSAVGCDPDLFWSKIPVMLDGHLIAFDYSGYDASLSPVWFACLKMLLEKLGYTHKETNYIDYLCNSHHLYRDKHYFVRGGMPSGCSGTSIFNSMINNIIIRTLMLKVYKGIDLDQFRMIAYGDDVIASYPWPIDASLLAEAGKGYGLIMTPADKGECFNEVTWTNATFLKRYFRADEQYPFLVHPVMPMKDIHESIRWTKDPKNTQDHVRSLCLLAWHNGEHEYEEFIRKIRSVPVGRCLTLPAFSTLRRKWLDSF
Chain of Genome polyprotein (rhinovirus B14, UniProt P03303) (P03303 1538-1719 limits assumed): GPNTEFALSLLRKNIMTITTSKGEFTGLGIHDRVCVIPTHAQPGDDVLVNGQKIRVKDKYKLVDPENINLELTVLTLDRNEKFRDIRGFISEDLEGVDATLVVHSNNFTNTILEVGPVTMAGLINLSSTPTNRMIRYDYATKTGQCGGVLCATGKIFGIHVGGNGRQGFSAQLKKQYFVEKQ
Chain of Genome polyprotein (rhinovirus B14) (P03303 whole entry): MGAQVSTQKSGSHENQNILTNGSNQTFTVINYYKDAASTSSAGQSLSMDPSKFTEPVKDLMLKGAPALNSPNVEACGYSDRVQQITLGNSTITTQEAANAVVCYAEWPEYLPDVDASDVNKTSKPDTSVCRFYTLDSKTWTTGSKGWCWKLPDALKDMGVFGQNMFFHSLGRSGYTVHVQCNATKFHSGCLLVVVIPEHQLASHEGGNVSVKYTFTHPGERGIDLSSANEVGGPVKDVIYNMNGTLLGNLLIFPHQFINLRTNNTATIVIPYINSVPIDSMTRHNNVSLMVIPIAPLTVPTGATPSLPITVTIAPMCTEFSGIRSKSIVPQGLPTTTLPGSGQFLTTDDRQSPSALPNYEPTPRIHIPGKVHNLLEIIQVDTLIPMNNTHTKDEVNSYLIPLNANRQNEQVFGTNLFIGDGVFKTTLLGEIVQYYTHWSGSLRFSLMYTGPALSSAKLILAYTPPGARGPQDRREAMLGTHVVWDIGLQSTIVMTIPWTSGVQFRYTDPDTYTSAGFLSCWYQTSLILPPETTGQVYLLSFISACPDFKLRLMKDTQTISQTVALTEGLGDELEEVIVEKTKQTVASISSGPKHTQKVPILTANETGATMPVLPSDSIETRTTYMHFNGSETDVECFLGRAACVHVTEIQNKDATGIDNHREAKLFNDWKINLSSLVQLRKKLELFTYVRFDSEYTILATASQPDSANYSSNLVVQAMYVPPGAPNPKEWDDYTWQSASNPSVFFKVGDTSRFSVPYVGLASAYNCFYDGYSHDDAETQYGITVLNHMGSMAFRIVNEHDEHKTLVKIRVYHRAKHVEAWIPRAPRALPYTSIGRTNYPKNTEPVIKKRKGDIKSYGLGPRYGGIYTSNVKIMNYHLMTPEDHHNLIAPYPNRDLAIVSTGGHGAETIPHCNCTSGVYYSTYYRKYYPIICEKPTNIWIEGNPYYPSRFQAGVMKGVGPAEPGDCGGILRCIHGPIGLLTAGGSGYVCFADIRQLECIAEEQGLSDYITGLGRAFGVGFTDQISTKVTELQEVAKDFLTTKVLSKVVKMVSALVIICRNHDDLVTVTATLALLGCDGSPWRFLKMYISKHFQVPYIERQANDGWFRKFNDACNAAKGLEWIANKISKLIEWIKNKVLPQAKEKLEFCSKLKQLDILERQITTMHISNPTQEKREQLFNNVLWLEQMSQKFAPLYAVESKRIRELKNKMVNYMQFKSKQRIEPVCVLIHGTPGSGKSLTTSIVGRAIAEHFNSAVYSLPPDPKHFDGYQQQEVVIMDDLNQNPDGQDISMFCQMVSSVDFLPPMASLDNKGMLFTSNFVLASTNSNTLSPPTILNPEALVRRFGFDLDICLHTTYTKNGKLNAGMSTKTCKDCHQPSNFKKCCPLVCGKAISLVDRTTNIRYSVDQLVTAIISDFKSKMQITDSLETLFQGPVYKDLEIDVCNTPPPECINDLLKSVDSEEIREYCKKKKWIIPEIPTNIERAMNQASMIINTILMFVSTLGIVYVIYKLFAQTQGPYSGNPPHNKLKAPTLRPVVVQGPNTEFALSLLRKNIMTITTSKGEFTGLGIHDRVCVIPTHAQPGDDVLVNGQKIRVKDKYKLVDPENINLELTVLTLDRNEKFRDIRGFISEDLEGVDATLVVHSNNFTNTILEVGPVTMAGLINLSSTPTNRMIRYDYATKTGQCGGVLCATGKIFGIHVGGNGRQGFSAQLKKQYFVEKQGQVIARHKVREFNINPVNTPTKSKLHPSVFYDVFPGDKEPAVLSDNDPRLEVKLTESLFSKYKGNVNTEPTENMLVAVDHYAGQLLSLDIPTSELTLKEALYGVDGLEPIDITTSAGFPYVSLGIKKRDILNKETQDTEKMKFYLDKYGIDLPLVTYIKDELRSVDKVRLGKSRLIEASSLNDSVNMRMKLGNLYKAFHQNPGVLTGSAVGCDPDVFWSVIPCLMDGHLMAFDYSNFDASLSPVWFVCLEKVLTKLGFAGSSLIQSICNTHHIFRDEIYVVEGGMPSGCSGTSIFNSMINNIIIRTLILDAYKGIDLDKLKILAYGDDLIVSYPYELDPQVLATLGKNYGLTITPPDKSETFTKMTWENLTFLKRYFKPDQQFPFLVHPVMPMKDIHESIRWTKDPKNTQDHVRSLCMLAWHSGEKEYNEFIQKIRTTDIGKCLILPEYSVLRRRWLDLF

As usually defined, the IC50 is the point on the concentration scale where inhibition reaches its midpoint. In assay [1], `Cc1[nH]c2ccccc2c1C1=C(Cl)C(=O)c2ncccc2C1=O` gave an IC50 of 0.73 µM.

As a reminder, the inhibition is the drop in the measured response relative to a control, in per cent. In the case of `COC(=O)/C=C/C(=O)[C@@H](NC(=O)OC(C)(C)C)C(C)C`, the inhibition in assay [2] is above 64%. The molecule also showed a 50% inhibitory concentration (IC50) in assay [1] of 1.8 µM.

The molecule `O=C(CCN1CCc2ccccc2CC1)c1ccc2c(c1)OCCO2` displayed an inhibition in assay [2] above 64%. In assay [1], this molecule had an IC50 of 11.1 µM.

On to `Cc1nc2c([nH]1)C(=O)C(Cl)=C(Nc1cc(F)cc(F)c1)C2=O`, for which the inhibition in assay [2] is above 64%. Moreover, the half-maximal inhibitory concentration (IC50) in assay [1] is 0.9 µM; in assay [3], 8.4 µM. Also, in assay [4], the inhibition result was “Active”.

Turning to `O=C1C(Cl)=C(Nc2cccc(Cl)c2)C(=O)c2[nH]c(-c3ccncc3)nc21`, inhibition in assay [1] was half-maximal at 0.55 µM (IC50).

`CC1(C)CC(=O)C2=C(C1)OC(=O)C2(Nc1ccccc1)C(F)(F)F` (centres undefined) returned an inhibition in assay [2] above 64%. Also, in assay [1], 8.3 µM corresponded to half-maximal inhibition (IC50).

Turning to `COc1ccc(OC2=C(Cl)C(=O)c3ccccc3C2=O)c([N+](=O)[O-])c1`, the inhibition in assay [2] was above 64%. The IC50 turned out to be 1.7 µM in assay [1] and 0.85 µM in assay [3]. Moreover, the inhibition entry in assay [5] was “Active”.

With `O=C1C(Sc2ccccc2)=C(Sc2ccccc2)C(=O)c2[nH]c(-c3ccncc3)nc21`, in assay [1], 0.79 µM corresponded to half-maximal inhibition (IC50).

For `Cc1[nH]c2ccccc2c1C1=C(O)C(=O)c2ncccc2C1=O`, the half-inhibitory concentration (IC50) in assay [1] stood at 1.1 µM.

In the case of `O=C1C(Sc2ccc(Cl)cc2)=C(Sc2ccc(Cl)cc2)C(=O)c2[nH]c(-c3ccncc3)nc21`, the 50% inhibitory concentration (IC50) in assay [1] turned out to be 0.57 µM.

`O=C1C=CC(=O)N1c1ccc(OC(F)(F)C(F)F)c(N2C(=O)C=CC2=O)c1` gave an inhibition in assay [2] above 64%. In assay [1], this molecule came in with a 50% inhibitory concentration (IC50) of 1.2 µM.

With `Cc1ccc(NC2=C(Cl)C(=O)c3nc(C)[nH]c3C2=O)cc1`, in assay [1], the IC50 stood at 0.83 µM.

With `O=C1C(Cl)=C(Cl)C(=O)c2ncccc21`, it took 0.63 µM to reach half-maximal inhibition in assay [1] (IC50).

On to `CN(Cc1ccccc1)CC(C(=O)c1ccc(Cl)cc1)n1cnc2ccccc2c1=O` (centres undefined), for which, in assay [2], the inhibition is above 64%. Further, in assay [1], the 50% inhibitory concentration (IC50) worked out at 6.2 µM.

As for `Cc1nc2c([nH]1)C(=O)C(Nc1ccc(C(F)(F)F)cc1)=C(Cl)C2=O`, in assay [1], the IC50 was 0.84 µM.

Turning to `O=C1C(Oc2ccc(O)cc2)=C(Oc2ccc(O)cc2)C(=O)c2ncccc21`, in assay [1], the 50% inhibitory concentration (IC50) stood at 1.2 µM.

In assay [2], `Cc1ccc(N/N=C/c2c(O)cc(C)oc2=O)cc1` came in with an inhibition above 64%. Besides, the concentration for half-maximal inhibition (IC50) in assay [1] came to 5.4 µM.

For the origin of these results see ChEMBL document CHEMBL4219266, “Identification of quinone analogues as potential inhibitors of picornavirus 3C protease in vitro” (Bioorg Med Chem Lett, 2018).
